≈ marks a conversion by molar mass, not a printed value. Read-outs that look alike come from different tables or passages of the source.
Key:
[1] = target: AChE EC 3.1.1.7 (Homo sapiens, UniProt P22303); experiment: Spectrophotometric AChE inhibition assay; type: biochemical
[2] = test system: rhinovirus 2 (HRV-2); experiment: Cytopathic effect; type: cell-based, human rhinovirus; conditions: for IC50: read-out: HRV (experimental result, activity class); for antiviral activity against HRV-2 (in words): HeLa cells, non-cytotoxic concentrations
[3] = Cytotoxicity on HeLa cell monolayers; type: cell-based; conditions: human, confluent HeLa cell monolayers
[4] = target: CB2 receptor (Homo sapiens, UniProt P34972); experiment: Radioligand
CB2 receptor, sequence (P34972 whole entry): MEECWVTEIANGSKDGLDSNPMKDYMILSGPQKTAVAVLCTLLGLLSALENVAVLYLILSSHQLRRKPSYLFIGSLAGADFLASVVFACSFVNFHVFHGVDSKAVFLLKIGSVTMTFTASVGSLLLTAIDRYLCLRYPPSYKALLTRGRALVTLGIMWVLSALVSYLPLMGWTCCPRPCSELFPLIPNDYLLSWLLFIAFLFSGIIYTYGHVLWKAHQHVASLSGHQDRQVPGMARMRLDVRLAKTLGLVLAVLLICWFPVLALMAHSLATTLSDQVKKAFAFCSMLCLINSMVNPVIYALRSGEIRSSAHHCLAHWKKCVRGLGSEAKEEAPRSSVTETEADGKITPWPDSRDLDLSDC

[5] = target: CB1 receptor (Homo sapiens, UniProt P21554); experiment: Radioligand
CB1 receptor, sequence (P21554 whole entry): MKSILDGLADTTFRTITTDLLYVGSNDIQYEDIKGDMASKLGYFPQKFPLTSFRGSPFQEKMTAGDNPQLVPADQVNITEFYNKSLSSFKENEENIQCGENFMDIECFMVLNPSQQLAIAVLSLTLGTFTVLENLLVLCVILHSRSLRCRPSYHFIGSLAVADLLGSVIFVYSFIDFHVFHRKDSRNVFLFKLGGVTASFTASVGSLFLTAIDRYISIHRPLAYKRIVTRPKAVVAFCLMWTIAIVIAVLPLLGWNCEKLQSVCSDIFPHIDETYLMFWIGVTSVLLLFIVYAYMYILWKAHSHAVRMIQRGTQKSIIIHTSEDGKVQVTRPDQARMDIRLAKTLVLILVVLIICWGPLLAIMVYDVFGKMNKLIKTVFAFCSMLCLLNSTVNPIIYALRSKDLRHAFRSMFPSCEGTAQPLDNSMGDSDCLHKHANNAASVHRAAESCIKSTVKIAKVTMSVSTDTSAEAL

[6] = test system: HeLa cell monolayers; experiment: Cytotoxicity on HeLa cell monolayers; type: cell-based; conditions: HeLa cells; for CC50: 72 h incubation, two independent tests
[7] = AChE (experimental result, activity class), Table 5 overview
[8] = AChE IC50 ± SD, in vitro, modified Ellman's method, 96-well microplate, n = 4
[9] = hCB2 Ki ± SD, displacement of [3H]CP-55,940, Cheng-Prusoff
[10] = read-out: AChE (experimental result, activity class), Table 5 overview
[11] = read-out: CB2 (experimental result, activity class), Table 5 overview
[12] = read-out: hCB2 Ki ± SD, displacement of [3H]CP-55,940, Cheng-Prusoff
[13] = CB2 (experimental result, activity class), Table 5 overview

AChE EC 3.1.1.7, sequence (P22303 32-614): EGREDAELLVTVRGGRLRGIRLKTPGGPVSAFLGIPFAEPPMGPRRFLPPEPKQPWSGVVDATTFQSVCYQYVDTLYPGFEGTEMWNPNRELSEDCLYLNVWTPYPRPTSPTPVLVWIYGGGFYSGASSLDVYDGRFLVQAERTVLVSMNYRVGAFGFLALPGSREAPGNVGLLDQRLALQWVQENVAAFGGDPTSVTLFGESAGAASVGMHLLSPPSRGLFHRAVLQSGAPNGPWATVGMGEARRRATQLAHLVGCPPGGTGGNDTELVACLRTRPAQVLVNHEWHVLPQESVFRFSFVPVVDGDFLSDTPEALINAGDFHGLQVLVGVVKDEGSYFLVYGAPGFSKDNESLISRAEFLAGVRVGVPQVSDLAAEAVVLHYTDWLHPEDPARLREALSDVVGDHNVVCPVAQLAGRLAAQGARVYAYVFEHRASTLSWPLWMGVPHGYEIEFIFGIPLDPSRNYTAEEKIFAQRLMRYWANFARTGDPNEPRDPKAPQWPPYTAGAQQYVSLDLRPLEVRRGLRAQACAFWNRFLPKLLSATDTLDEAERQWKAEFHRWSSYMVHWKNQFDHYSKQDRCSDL

Compound: O=c1ccc2cc3ccoc3cc2o1 [Compound 5, psoralen]
- IC50 [1, 7]: > 500 µM
- IC50 [1, 8]: > 500 µM

Compound: COc1cc2ccc(=O)oc2c(OC)c1OC [Compound 13, 6,7,8-trimethoxycoumarin]
- AChE inhibiting activity (in words) [1]: Modest effects
- IC50 [1, 7]: 200 to 500 µM
- IC50 [1, 8]: 396 ± 68.5 µM
- IC50 ([2]; Enterovirus, HRV2, HeLa): 10 to 20 µM
- antiviral activity against HRV-2 (in words) [2]: most active antiviral constituents
- CC50 at 72 h [3]: > 50 µg/mL

Compound: CCCCCc1cc(O)c2c(c1)OC(C)(C)c1ccc(C)cc1-2 [Cannabinol, reference compound]
- Ki [4, 9]: 0.12 ± 0.01 µM
- Ki [5]: 0.42 ± 0.13 µM

Compound: COC(=O)CC(O)c1cc(OC)c(O)c(OC)c1 (centres unmarked) [Compound 14, Methyl 3-hydroxy-3-(4-hydroxy-3,5-dimethoxyphenyl)propanoate]
- IC50 [1, 8]: > 500 µM
- IC50 [1, 10]: > 500 µM
- IC50 ([2]; Enterovirus, HRV2, HeLa): > 100 µM
- CC50 at 72 h [3]: > 50 µg/mL

Compound: Cn1c2c(c(=O)c3ccccc31)CC(O)C(C)(C)O2 (centres unmarked) [Compound 8, S-ribalinine]
- IC50 [1, 10]: > 500 µM
- Ki [4, 11]: > 100 µM
- Ki [4, 12]: > 100 µM
- antiviral activity against HRV-2 (in words) [2]: Weak, but significant and dose-dependent antiviral activities
- IC50 ([2]; Table 5 overview): 20 to 100 µM
- CC50 [6]: > 50 µg/mL

Compound: COc1c2occc2cc2ccc(=O)oc12 [Compound 7, 8-methoxy psoralene]
- IC50 [1, 7]: > 500 µM
- IC50 [1, 8]: > 500 µM

Compound: COC(=O)C1OC1c1cc(OC)c(O)c(OC)c1 (centres unmarked) [Compound 15, Methyl 3-(4-hydroxy-3,5-dimethoxyphenyl)oxirane-2-carboxylate]
- IC50 [1, 8]: > 500 µM
- CC50 at 72 h [3]: > 50 µg/mL

Compound: CC(C)=CCOc1c2ccoc2cc2oc(=O)ccc12 [Compound 4, isoimperatorine]
- IC50 [1, 7]: > 500 µM
- IC50 [1, 8]: > 500 µM

Compound: COC(=O)CCc1cc2ccoc2c(OC)c1O [Compound 16, Methyl 3-(6-hydroxy-7-methoxybenzofuran-5-yl)propanoate]
- IC50 [1, 8]: > 500 µM
- IC50 [1, 10]: > 500 µM
- IC50 ([2]; Enterovirus, HRV2, HeLa): 20 to 100 µM
- antiviral activity against HRV-2 (in words) [2]: Weak, but significant and dose-dependent antiviral activities
- CC50 at 72 h [3]: > 50 µg/mL

Compound: COc1c2ccoc2cc2oc(=O)ccc12 [Compound 6, bergapten]
- IC50 [1, 7]: > 500 µM
- IC50 [1, 8]: > 500 µM

Compound: Cc1cc(CCCOc2c(C)cc(-c3noc(C(F)(F)F)n3)cc2C)on1 [Pleconaril, reference compound]
- CC50 at 72 h [3]: 12.6 µg/mL (≈ 33 µM)

Compound: COc1c(C[C@@H](O)C(C)(C)O)c(=O)n(C)c2ccccc12 [Compound 10, (−)-edulinine]
- IC50 [1, 10]: > 500 µM
- Ki [4, 11]: > 100 µM
- Ki [4, 12]: > 100 µM

Compound: COc1cc2cc(Oc3ccc4ccc(=O)oc4c3)c(=O)oc2cc1OC [Compound 2, daphnoretin methyl ether]
- IC50 [1, 10]: > 500 µM
- antiviral activity against HRV-2 (in words) [2]: Weak, but significant and dose-dependent antiviral activities
- IC50 ([2]; Table 5 overview): 20 to 100 µM
- CC50 [6]: > 50 µg/mL

Compound: C=CC(C)(C)c1cc2cc3c(cc2oc1=O)OC(C(C)(C)OC(C)=O)C3 (centres unmarked) [Compound 3, rutamarin]
- IC50 [1, 7]: > 500 µM
- IC50 [1, 8]: > 500 µM
- Ki [4, 13]: < 10 µM
- Ki ([4]; CB2 Ki, displacement of [3H]CP-55,940): 7.41 µM
- Ki [4, 9]: 7.4 ± 0.6 µM
- binding affinity to the CB receptors (in words) ([4]; radioligand displacement assay): selective affinity to the CB2 receptor
- HRV (experimental result, activity class) ([2]; Table 5 overview): cytotoxic
- Ki [5]: > 100 µM
- cytotoxicity (in words) [6]: pronounced cytotoxicity
- CC50 at 72 h [3]: 0.9 µg/mL (≈ 2.53 µM)

Compound: COc1cc2c(c(O)c1OC)c(=O)c1ccccc1n2C [Compound 1, arborinine]
- AChE inhibiting activity (in words) [1]: strongest AChE inhibiting activity
- IC50 [1, 7]: < 50 µM
- IC50 [1, 8]: 34.7 ± 7.1 µM
- Ki [4, 13]: > 100 µM
- Ki [4, 9]: > 100 µM
- IC50 ([2]; Enterovirus, HRV2, HeLa): < 10 µM
- antiviral activity against HRV-2 (in words) [2]: most active antiviral constituents
- Ki [5]: > 100 µM
- CC50 at 72 h [3]: > 50 µg/mL

Compound: isoplatydesmin [Compound 9]
- AChE inhibiting activity (in words) [1]: Modest effects
- Ki [4, 12]: > 100 µM

Compound: O=c1cc(-c2ccc3c(c2)OCO3)[nH]c2ccccc12 [Compound 11, norgraveoline]
- AChE inhibiting activity (in words) [1]: Modest effects
- IC50 [1, 10]: 50 to 200 µM
- IC50 ([2]; Table 5 overview): > 100 µM
- CC50 [6]: 32.2 µg/mL (≈ 121 µM)

Compound: COc1ccc2ccc(=O)oc2c1 [Compound 12, 7-methoxycoumarin]
- IC50 [1, 7]: > 500 µM
- IC50 [1, 8]: > 500 µM
